# Entries after “also recorded” stand apart in the source; their conditions may differ. Read-outs that look alike come from different tables or passages of the source.
# How the values were obtained:
# Type in all cases: in vivo, Jersey heifers
# [1] = Toxicokinetics of PTA and PTB in plasma after intravenous administration of PTA; details: for AUC0-∞: PTA in plasma; for k el / clearance / MRT / Vd: iv; for k el: read-out: λz terminal slope (converted)
# Procedure: (§1) Two heifers (no’s 4848 and 4849) were used in a series of five experiments (Table 1) in a cross-over design including intravenous administration of pure PTA, oral administration of bracken extract and oral administration of dried bracken fern. At least 2 weeks elapsed between each experiment.
# Intravenous administration of PTA. In Experiment 1 the dose of purified PTA (0.21 mg kg^-1 body weight (b.w.) / 0.527 μmoles kg^-1) was dissolved in 10 mL of sterile water in a brown glass vial 1 hour before administration and protected from light. The solution was injected through a catheter (Cavafix Certo: 45 cm, 16 G; B. Braun Melsungen AG, Melsungen, Germany) placed in the right jugular vein. Blood samples were collected through another catheter placed in the left jugular vein. Blood samples were collected in heparinized glass tubes before and at predetermined times (10, 20, 30, 45 min and 1, 2, 4, 6, 8, 12, 21 and 24 hours) after PTA administration. The blood was centrifuged for 15 min at 3000 g to separate plasma which then was stored immediately at -18°C until assayed within a week following the method of Aranha et al.. Urine was collected quantitatively in urinary bags (Ratiomed GmBH, München, Germany) through a Foley catheter (Rusch Silasil no 16; Teleflex, Milan, Italy) inserted into the bladder. Samples were collected before and at predetermined times (1, 2, 4, 6, 8, 12, 20 and 24 hours) after PTA administration. Two replicates from each sample were diluted 10 times (0.5 mL: 4.5 mL) with 0.1 M acetic acid, buffered to pH 5 with ammonium acetate and frozen immediately at -18°C until assayed within a week following the method of Aranha et al.. […] In this experiment, PTA was dissolved in sterile water immediately before injection.
# (§2) Concentrations of PTA in plasma of individual animals were evaluated by non-compartmental analysis. Toxicokinetic variables were calculated using standard kinetic equations. The area under the curve (AUC) and the area under the first moment curve (AUMC) were determined using combined linear and natural logarithm trapezoidal rules. The terminal elimination rate was determined using the last three data points of the curve.
# (§3) PTA and PTB were analysed by LC-MS after purification using solid phase extraction (SPE) columns as reported in Aranha et al.. The limit of quantification of PTA and PTB in plasma was 3.0 x 10^−3 μM and 9.30 x 10^−3 μM, respectively. Limit of quantifications in diluted urine was 13 x 10^−3 μM for PTA and 8.28 x 10^−3μM for PTB.
# [2] = Urinary recovery of PTA and PTB after intravenous administration of PTA; details: twelve hours after iv administration of PTA
# Procedure: Intravenous administration of PTA. In Experiment 1 the dose of purified PTA (0.21 mg kg^-1 body weight (b.w.) / 0.527 μmoles kg^-1) was dissolved in 10 mL of sterile water in a brown glass vial 1 hour before administration and protected from light. The solution was injected through a catheter (Cavafix Certo: 45 cm, 16 G; B. Braun Melsungen AG, Melsungen, Germany) placed in the right jugular vein. Blood samples were collected through another catheter placed in the left jugular vein. Blood samples were collected in heparinized glass tubes before and at predetermined times (10, 20, 30, 45 min and 1, 2, 4, 6, 8, 12, 21 and 24 hours) after PTA administration. The blood was centrifuged for 15 min at 3000 g to separate plasma which then was stored immediately at -18°C until assayed within a week following the method of Aranha et al.. Urine was collected quantitatively in urinary bags (Ratiomed GmBH, München, Germany) through a Foley catheter (Rusch Silasil no 16; Teleflex, Milan, Italy) inserted into the bladder. […]
# as §3
# [3] = Presence of glucuronides and sulphates in urine (B-glucuronidase/arylsulfatase incubation); details: urine after iv PTA
# Procedure: The presence of glucuronides and sulphates was assessed by incubating 1 ml of buffered urine samples in 0.1 M acetic acid buffer (pH 5) with or without addition of 100 μl of B-glucuronidase/arylsulfatase at 37°C for 3 hours on a shaking water bath. Afterwards, an aliquot of 950 μl of each samples were cleaned on the Oasis HLB cartridges and analysed as described for urine samples [22].
# [4] = Toxicokinetics in plasma after oral administration of bracken extract or dried bracken fern; details: bracken extract or dried bracken fern, Experiments 2, 3 and 5
# Procedure: as §1
# Oral exposure, bracken extract. Bracken extract was administered orally by gavage in Experiment 2 (170 and 172 mL) and Experiment 5 (820 and 850 mL), to obtain PTA doses of 0.41 and 2 mg kg^-1 b.w (1.025 and 5.000 μmoles kg^-1), respectively. Blood and urine samples were collected up to 48 hours after gavage and samples were processed and stored as described previously.
# Oral exposure, dried bracken fern. In Experiment 3, dried bracken fern was milled to a fine powder. Immediately before administration, the powder was mixed with water to produce a slurry (15 g of bracken per 100 mL of water). The slurry was administered orally by gavage (400 mL and 380 mL) corresponding to a PTA dose of 1.6 mg kg^-1 b.w (4 μmoles kg^-1). Blood and urine samples were collected up to 72 hours after gavage and the samples were processed and stored as described above.
# as §2, §3
smiles,measurement,setting,value
"CC1=C[C@]2(O[C@@H]3O[C@H](CO)[C@@H](O)[C@H](O)[C@H]3O)C[C@@H](C)C(=O)[C@@H]2[C@](C)(O)C12CC2 [PTA, (2'R,3a'R,4'S,7a'R)-4'-Hydroxy-2',4',6'-trimethyl-3'-oxo-2',3',3a',4'-tetrahydrospiro[cyclopropane-1,5'-inden]-7a'(1'H)-yl β-D-glucopyranoside]",AUC0-∞,"[1]; iv PTA 0.141 μmoles kg^-1, heifer no 4849, head prints Experiment 2",0.42 µM·h
same,AUC0-∞,"[1]; iv PTA 0.231 μmoles kg^-1, heifer no 4848, head prints Experiment 2",0.829 µM·h
same,AUC0-∞,"[1]; iv PTA 0.527 μmoles kg^-1, heifer no 4848, Experiment 1",1.39 µM·h
same,AUC0-∞,"[1]; iv PTA 0.527 μmoles kg^-1, heifer no 4849, Experiment 1",1.35 µM·h
same,k el,"[1]; female, Jersey, bovine, plasma, 0.141 μmoles kg^-1, iv PTA 0.141 μmoles kg^-1, heifer no 4849, head prints Experiment 2, plasma",6.72e-05 s⁻¹
same,clearance,"[1]; female, Jersey, bovine, plasma, 0.141 μmoles kg^-1, iv PTA 0.141 μmoles kg^-1, heifer no 4849, head prints Experiment 2, read-out: Cl (body) body clearance (converted)",5.57 mL/min/kg
same,MRT,"[1]; female, Jersey, bovine, plasma, 0.141 μmoles kg^-1, iv PTA 0.141 μmoles kg^-1, heifer no 4849, head prints Experiment 2, read-out: MRT mean residence time",2.48 h
same,Vd,"[1]; female, Jersey, bovine, plasma, 0.141 μmoles kg^-1, iv PTA 0.141 μmoles kg^-1, heifer no 4849, head prints Experiment 2, read-out: Vss apparent volume of distribution at steady-state",0.83 L/kg
same,k el,"[1]; female, Jersey, bovine, plasma, 0.231 μmoles kg^-1, iv PTA 0.231 μmoles kg^-1, heifer no 4848, head prints Experiment 2, plasma",0.000105 s⁻¹
same,clearance,"[1]; female, Jersey, bovine, plasma, 0.231 μmoles kg^-1, iv PTA 0.231 μmoles kg^-1, heifer no 4848, head prints Experiment 2, read-out: Cl (body) body clearance (converted)",4.72 mL/min/kg
same,MRT,"[1]; female, Jersey, bovine, plasma, 0.231 μmoles kg^-1, iv PTA 0.231 μmoles kg^-1, heifer no 4848, head prints Experiment 2, read-out: MRT mean residence time",2.04 h
same,Vd,"[1]; female, Jersey, bovine, plasma, 0.231 μmoles kg^-1, iv PTA 0.231 μmoles kg^-1, heifer no 4848, head prints Experiment 2, read-out: Vss apparent volume of distribution at steady-state",0.567 L/kg
same,k el,"[1]; female, Jersey, bovine, plasma, 0.527 μmoles kg^-1, iv PTA 0.527 μmoles kg^-1, heifer no 4848, Experiment 1, plasma",4.25e-05 s⁻¹
same,clearance,"[1]; female, Jersey, bovine, plasma, 0.527 μmoles kg^-1, iv PTA 0.527 μmoles kg^-1, heifer no 4848, Experiment 1, read-out: Cl (body) body clearance (converted)",6.33 mL/min/kg
same,MRT,"[1]; female, Jersey, bovine, plasma, 0.527 μmoles kg^-1, iv PTA 0.527 μmoles kg^-1, heifer no 4848, Experiment 1, read-out: MRT mean residence time",2.99 h
same,Vd,"[1]; female, Jersey, bovine, plasma, 0.527 μmoles kg^-1, iv PTA 0.527 μmoles kg^-1, heifer no 4848, Experiment 1, read-out: Vss apparent volume of distribution at steady-state",1.14 L/kg
same,k el,"[1]; female, Jersey, bovine, plasma, 0.527 μmoles kg^-1, iv PTA 0.527 μmoles kg^-1, heifer no 4849, Experiment 1, plasma",3.19e-05 s⁻¹
same,clearance,"[1]; female, Jersey, bovine, plasma, 0.527 μmoles kg^-1, iv PTA 0.527 μmoles kg^-1, heifer no 4849, Experiment 1, read-out: Cl (body) body clearance (converted)",6.48 mL/min/kg
same,MRT,"[1]; female, Jersey, bovine, plasma, 0.527 μmoles kg^-1, iv PTA 0.527 μmoles kg^-1, heifer no 4849, Experiment 1, read-out: MRT mean residence time",3.84 h
same,Vd,"[1]; female, Jersey, bovine, plasma, 0.527 μmoles kg^-1, iv PTA 0.527 μmoles kg^-1, heifer no 4849, Experiment 1, read-out: Vss apparent volume of distribution at steady-state",1.49 L/kg
same,Vd,"[1]; female, Jersey, bovine, plasma, 0.21 mg/kg, iv PTA 0.21 mg kg^-1 b.w., average of two heifers, read-out: apparent volume of distribution at steady state (Vss)",~1.3 L/kg
same,MRT,"[1]; female, Jersey, bovine, plasma, iv PTA, abstract and discussion, read-out: mean residence time (MRT), as summarised",≤ 4 h
same,half-life,"[1]; female, Jersey, bovine, plasma, iv purified PTA, read-out: terminal half-life",≤ 6 h
same,Vd,"[1]; female, Jersey, cattle, plasma, 0.21 mg/kg, iv PTA 0.21 mg kg^-1 b.w., average of two heifers, read-out: apparent volume of distribution at steady state (Vss)",1.3 L/kg
same,clearance,"[1]; female, Jersey, cattle, plasma, 0.21 mg/kg, iv PTA 0.21 mg kg^-1 b.w., average of two heifers, read-out: average clearance (converted)",6.5 mL/min/kg
same,MRT,"[1]; female, Jersey, cattle, plasma, 0.21 mg/kg, iv PTA 0.21 mg kg^-1 b.w., average of two heifers, read-out: average of the mean residence time (MRT)",3.4 h
same,MRT,"[1]; female, Jersey, cattle, plasma, iv PTA, abstract and discussion, read-out: mean residence time (MRT), as summarised",4 h
same,time after which the plasma concentration was below the limit of quantification,[1]; iv PTA 0.21 mg kg^-1 b.w.,12 h
same,dose recovered in urine as PTA,[2],30%
same,conjugation with glucuronic acid or sulphate in urine,[3],not conjugated with either glucuronic acid or sulphate
same,PTA in plasma after oral administration,[4],not detected; also recorded: neither detected
same,PTA in plasma after oral administration,[4]; listed as ptaquiloside,did not result in observations of ptaquiloside in body fluids

# Reference: paper PMC6588243, “Fate of ptaquiloside—A bracken fern toxin—In cattle” (PLoS ONE, 2019)
